In US20260098053A1, “COMPOSITIONS AND METHODS FOR TREATING CNS DISORDERS” (SAGE THERAPEUTICS, INC., priority 2019, published 2026):
Like-named read-outs stand apart in the source and are kept apart here.

Biological target: [35S]-TBPS binding, rat brain cortical membranes
Test: Steroid inhibition of [35S]-TBPS binding
Conditions: in the presence of 5 mM GABA
Experimental: [35S]-t-Butylbicyclophosphorothionate (TBPS) binding assays using rat brain cortical membranes in the presence of 5 mM GABA has been described (Gee et al, J. Pharmacol. Exp. Ther. 1987, 241, 346-353; Hawkinson et al, Mol. Pharmacol. 1994, 46, 977-985; Lewin, A. H et al., Mol. Pharmacol. 1989, 35, 189-194).
Briefly, cortices are rapidly removed following decapitation of carbon dioxide-anesthetized Sprague-Dawley rats (200-250 g). The cortices are homogenized in 10 volumes of ice-cold 0.32 M sucrose using a glass/teflon homogenizer and centrifuged at 1500×g for 10 min at 4° C. The resultant supernatants are centrifuged at 10,000×g for 20 min at 4° C. to obtain the P2 pellets. The P2 pellets are resuspended in 200 mM NaCl/50 mM Na—K phosphate pH 7.4 buffer and centrifuged at 10,000×g for 10 min at 4° C. This washing procedure is repeated twice and the pellets are resuspended in 10 volumes of buffer. Aliquots ([…]) of the membrane suspensions are incubated with 3 nM [^35S]-TBPS and […] aliquots of test drug dissolved in dimethyl sulfoxide (DMSO) (final 0.5%) in the presence of 5 mM GABA. The incubation is brought to a final volume of 1.0 mL with buffer. Nonspecific binding is determined in the presence of […] and ranged from 15 to 25%. Following a 90 min incubation at room temp, the assays are terminated by filtration through glass fiber filters (Schleicher and Schuell No. 32) using a cell harvester (Brandel) and rinsed three times with ice-cold buffer. Filter bound radioactivity is measured by liquid scintillation spectrometry. Non-linear curve fitting of the overall data for each drug averaged for each concentration is done using Prism (GraphPad). […] The concentration of test compound producing 50% inhibition (IC50) of specific binding and the maximal extent of inhibition (Imax) are determined for the individual experiments with the same model used for the overall data and then the means±SEM.s of the individual experiments are calculated.
Various compounds are or can be screened to determine their potential as modulators of [^35S]-TBPS binding in vitro. These assays are or can be performed in accordance with the above

[1] = Table 5, 3 nM [35S]-TBPS, read-out: TBPS IC50
[2] = Table 4, 3 nM [35S]-TBPS, read-out: TBPS IC50
[3] = Table 6, 3 nM [35S]-TBPS, read-out: IC50

Row | SMILES | IC50 [2] | further results
1 | CC(=O)[C@H]1CC[C@H]2[C@@H]3CC[C@H]4C[C@](C)(O)CC[C@@H]4[C@H]3CC[C@@H]21 [Example 72, 1-((3R,5S,8R,9R,10S,13S,14S,17S)-3-hydroxy-3-methylhexadecahydro-1H-cyclopenta[a]phenanthren-17-yl)ethanone] |  | IC50 [1]: > 1000 nM
2 | C[C@@]1(O)CC[C@H]2[C@H](CC[C@@H]3[C@@H]2CC[C@H]2[C@H]3CC[C@@H]2C(=O)Cn2cc(C#N)cn2)C1 [Example 68, 1-(2-((3R,5R,8R,9R,10S,13S,14S,17S)-3-hydroxy-3-methylhexadecahydro-1H-cyclopenta[a]phenanthren-17-yl)-2-oxoethyl)-1H-pyrazole-4-carbonitrile] |  | IC50 [1]: < 100 nM
3 | CC[C@]12CC[C@@](C)(O)C[C@H]1CC[C@H]1[C@@H]3CCCC[C@@H](C(C)=O)[C@@]3(C)CC[C@@H]12 [Example 23, 1-((2R,4aS,4bS,6aS,7R,11aS,11bS,13aR)-4a-ethyl-2-hydroxy-2,6a-dimethyloctadecahydro-1H-cyclohepta[a]phenanthren-7-yl)ethanone] | 100 to 1000 nM | 
4 | Cc1nnnn1CC(=O)[C@H]1CCC[C@H]2[C@@H]3CC[C@@H]4C[C@](C)(O)CCC[C@@H]4[C@H]3CC[C@]12C [Example 12, 1-((1S,4aS,4bR,6aR,8R,11aS,11bR,13aS)-8-hydroxy-8,13a-dimethyloctadecahydro-1H-cyclohepta[a]phenanthren-1-yl)-2-(5-methyl-1H-tetrazol-1-yl)ethan-1-one] | < 100 nM | 
5 | C[C@@]1(O)CCC[C@@]2(C)[C@H](CC[C@@H]3[C@@H]2CC[C@]2(C)[C@@H](C(=O)Cn4cc(C#N)cn4)CCCC[C@@H]32)C1 [Example 60] | < 100 nM | 
6 | C[C@]1(O)CC[C@H]2CC[C@@H]3[C@H](CC[C@]4(C)[C@@H](C(=O)Cn5cc(C#N)cn5)CCC[C@@H]34)[C@H]2CC1 [Example 4, 1-(2-((1S,4aS,4bR,6aR,9S,11aS,11bR,13aS)-9-hydroxy-9,13a-dimethyloctadecahydro-1H-cyclohepta[a]phenanthren-1-yl)-2-oxoethyl)-1H-pyrazole-4-carbonitrile] | 100 to 1000 nM | 
7 | C[C@@]1(O)CCC[C@@]2(C)[C@H](CC[C@@H]3[C@@H]2CC[C@]2(C)[C@H](C(=O)Cn4cc(C#N)cn4)CCC[C@@H]32)C1 [Example 17, 1-(2-((1R,4aS,4bR,6aR,8R,11aS,11bS,13aS)-8-hydroxy-8,11a,13a-trimethyloctadecahydro-1H-cyclohepta[a]phenanthren-1-yl)-2-oxoethyl)-1H-pyrazole-4-carbonitrile] | > 1000 nM | 
8 | CC[C@]12CC[C@H]3[C@@H](CC[C@@H]4C[C@](C)(O)CC[C@@]43C3CC3)[C@@H]1CC[C@@H]2C(=O)Cn1nnc(C)n1 [Example 91, 1-((3R,5R,8S,9S,10R,13S,14S,17S)-10-cyclopropyl-13-ethyl-3-hydroxy-3-methylhexadecahydro-1H-cyclopenta[a]phenanthren-17-yl)-2-(5-methyl-2H-tetrazol-2-yl)ethanone] |  | IC50 [3]: < 100 nM
9 | COC[C@]1(O)CC[C@@H]2CC[C@@H]3[C@H](CC[C@]4(C)[C@@H](C(=O)Cn5cc(C#N)cn5)CCC[C@@H]34)[C@@]2(C)CC1 [Example 56, 1-(2-((1S,4aS,4bR,6aS,9S,11aS,11bS,13aS)-9-hydroxy-9-(methoxymethyl)-11a,13a-dimethyloctadecahydro-1H-cyclohepta[a]phenanthren-1-yl)-2-oxoethyl)-1H-pyrazole-4-carbonitrile] | 100 to 1000 nM | 
10 | CC(=O)[C@H]1CCC[C@H]2[C@@H]3CC[C@@H]4C[C@](C)(O)CC[C@]4(C4CC4)[C@H]3CC[C@]12C [Example 85, 1-((1S,4aS,4bS,6aR,8R,10aR,10bS,12aS)-10a-cyclopropyl-8-hydroxy-8,12a-dimethyloctadecahydrochrysen-1-yl)ethan-1-one] |  | IC50 [3]: < 100 nM
11 | CC[C@]12CC[C@@](C)(O)CC[C@H]1CC[C@H]1[C@@H]3CC[C@H](C(=O)Cn4cc(C#N)cn4)[C@@]3(C)CC[C@@H]12 [Example 26] | 100 to 1000 nM | 
12 | CC[C@]12CC[C@H]3[C@@H](CC=C4CC[C@](C)(O)CC[C@@]43C)[C@@H]1CC[C@@H]2C(=O)Cn1cc(C#N)cn1 [Example 35, 1-(2-((1S,3aS,3bS,8S,10aR,10bS,12aS)-12a-ethyl-8-hydroxy-8,10a-dimethyl-1,2,3,3a,3b,4,6,7,8,9,10,10a,10b,11,12,12a-hexadecahydrocyclohepta[a]cyclopenta[f]naphthalen-1-yl)-2-oxoethyl)-1H-pyrazole-4-carbonitrile] | < 100 nM | 
13 | C[C@@]1(O)CC[C@@]2(C3CC3)[C@H](CC[C@H]3[C@@H]4CCC[C@@H](C(=O)Cn5cc(C#N)cn5)[C@@]4(C)CC[C@@H]32)C1 [Example 86, 1-(2-((1R,4aS,4bS,6aR,8R,10aR,10bS,12aS)-10a-cyclopropyl-8-hydroxy-8,12a-dimethyloctadecahydrochrysen-1-yl)-2-oxoethyl)-1H-pyrazole-4-carbonitrile] |  | IC50 [3]: > 1000 nM
14 | C[C@@]1(O)CCC[C@@]2(C)[C@H](CC[C@@H]3[C@@H]2CC[C@]2(C)[C@@H](C(=O)CCn4cc(C#N)cn4)CCC[C@@H]32)C1 [Example 18, 1-(3-((1S,4aS,4bR,6aR,8R,11aS,11bS,13aS)-8-hydroxy-8,11a,13a-trimethyloctadecahydro-1H-cyclohepta[a]phenanthren-1-yl)-3-oxopropyl)-1H-pyrazole-4-carbonitrile] | < 100 nM | 
15 | Cc1nnn(CC(=O)[C@H]2CCC[C@H]3[C@@H]4CC[C@@H]5C[C@](C)(O)CCC[C@@H]5[C@H]4CC[C@]23C)n1 [Example 11, 1-((1S,4aS,4bR,6aR,8R,11aS,11bR,13aS)-8-hydroxy-8,13a-dimethyloctadecahydro-1H-cyclohepta[a]phenanthren-1-yl)-2-(5-methyl-2H-tetrazol-2-yl)ethan-1-one] | < 100 nM | 
16 | CC[C@]12CC[C@H]3[C@@H](CC[C@@H]4C[C@](C)(O)CC[C@@H]43)[C@@H]1CCC[C@@H]2C(C)=O [Example 27, 1-((1S,4aS,4bR,6aR,8R,10aS,10bR,12aS)-12a-ethyl-8-hydroxy-8-methyloctadecahydrochrysen-1-yl)ethanone] | < 100 nM | 
17 | CC[C@]12CC[C@@](C)(O)C[C@H]1CC[C@H]1[C@@H]3CCC[C@H](C(=O)Cn4cc(C#N)cn4)[C@@]3(C)CC[C@@H]12 [Example 19, 1-(2-((1S,4aS,4bS,6aR,8R,10aS,10bS,12aS)-10a-ethyl-8-hydroxy-8,12a-dimethyloctadecahydrochrysen-1-yl)-2-oxoethyl)-1H-pyrazole-4-carbonitrile] | < 100 nM | 
18 | CC(=O)[C@H]1CCC[C@H]2[C@@H]3CC[C@@H]4CC[C@](C)(O)CC[C@@H]4[C@H]3CC[C@]12C [Example 1, 1-((1S,4aS,4bR,6aR,9S,11aS,11bR,13aS)-9-hydroxy-9,13a-dimethyloctadecahydro-1H-cyclohepta[a]phenanthren-1-yl)ethan-1-one] | > 1000 nM | 
19 | CC[C@@]1(O)CCC[C@H]2[C@H](CC[C@@H]3[C@@H]2CC[C@]2(C)[C@H](C(C)=O)CCC[C@@H]32)C1 [Example 36, 1-((1R,4aS,4bR,6aR,8R,11aS,11bR,13aS)-8-ethyl-8-hydroxy-13a-methyloctadecahydro-1H-cyclohepta[a]phenanthren-1-yl)ethenone] | > 1000 nM | 
20 | CC(=O)[C@H]1CCC[C@H]2[C@@H]3CC=C4CC[C@](C)(O)CC[C@]4(C)[C@H]3CC[C@]12C [Example 57, 1-((1S,4aS,4bS,9S,11aR,11bS,13aS)-9-hydroxy-9,11a,13a-trimethyl-2,3,4,4a,4b,5,7,8,9,10,11,11a,11b,12,13,13a-hexadecahydro-1H-cyclohepta[a]phenanthren-1-yl)ethanone] | < 100 nM | 
21 | Cc1nnnn1CC(=O)[C@H]1CC[C@H]2[C@@H]3CC[C@@H]4C[C@](C)(O)CC[C@@H]4[C@H]3CC[C@@H]21 [Example 70, 1-((3R,5R,8R,9R,10S,13S,14S,17S)-3-hydroxy-3-methylhexadecahydro-1H-cyclopenta[a]phenanthren-17-yl)-2-(5-methyl-1H-tetrazol-1-yl)ethan-1-one] |  | IC50 [1]: < 100 nM
